Laboratory results reported in patent US20080194467A1, “CANCER TREATMENT METHODS USING CADHERIN ANTAGONISTS IN COMBINATION WITH ANTICANCER AGENTS” (ADHEREX TECHNOLOGIES, INC., priority 2006, published 2008).
Where two headings read alike, the source gives them in different places. Bridge positions count the residues as written; N and C are the ends.

Experiments:
[1] = tested on: human melanoma cell line DM738; assay type: in vivo
A375 tumors = assay: In vivo combination therapy of A375 tumors, ADH-1 with temozolomide; settings: ADH-1 100 mg/kg i.p. qdx8; TMZ 100 mg/kg p.o. qdx5; administered separately
Protocol: 100 mg/kg of TMZ was administered p.o. on a qdx5 schedule starting on Day 4. For the combination groups, TMZ was always administered 1 hour after the ADH-1 dose. A375 tumors were resistant to both TMZ and ADH-1 when administered separately.

[2] = tested on: human melanoma xenografts (DM366 and DM738); assay: Isolated limb infusion (ILI) of melphalan with or without systemic ADH-1 in nude rats bearing human melanoma xenografts; assay type: in vivo; settings: day 60 after 15 minute regional infusion into the hind limb
[3] = tested on: Ovarian Tumor Cell Line A2780; settings: paclitaxel 30 mg/kg i.v. qodx5; ADH-1 100 mg/kg i.p. Day 1 then b.i.d.x20
Protocol: In this set of experiments, 100 mg/kg of ADH-1 was administered i.p. as a single dose on Day 1 and then […].) for the duration of the treatment period. 30 mg/kg paclitaxel was administered i.v. on a qodx5 schedule starting on Day 2. For the combination groups, paclitaxel was always administered 5 minutes after the morning ADH-1 dose.

N—Ac-CHAVC-NH2 (disulfide 1-5 (inferred)) [ADH-1]
anti-tumor response ([1]; DM738 tumors, single ILI of melphalan and/or systemic ADH-1, compared to vehicle control): no detectable anti-tumor response | tumor response to treatment (resistance) (A375 tumors): resistant

N[C@@H](Cc1ccc(N(CCCl)CCCl)cc1)C(=O)O [melphalan]
anti-tumor response ([1]; rat, in vivo): no detectable anti-tumor response | increase in tumor volume [2]: 439.4%

CC(=O)O[C@H]1C(=O)[C@@]2(C)[C@H]([C@H](OC(=O)c3ccccc3)[C@]3(O)C[C@H](OC(=O)[C@H](O)[C@@H](NC(=O)c4ccccc4)c4ccccc4)C(C)=C1C3(C)C)[C@]1(OC(C)=O)CO[C@@H]1C[C@@H]2O [paclitaxel]
complete cures out of 10 animals [3]: 10% | delay in tumor growth [3]: transient delay in tumor growth
